From patent US20040127439A1, “Introduction of the wld gene for prevention of axonal degeneration in neurological diseases” (priority 2004, published 2004)
Where two headings read alike, the source gives them in different places.

Tests used:
DRG neurites [1] = conditions: for Area (DRG neuritic halo) / Length (longest neurite): Vin 0.01 μM, EGTA 2 mM
Protocol: On the day of DRG culture, the dishes are washed twice with PBS buffer (pH 7.4), filled with 550 μl medium and pre-incubated at 37 C for at least 2 hours. Fifteen-day old embryos (E15) are removed from pregnant Sprague-Dawley rats (Charles River), and spinal cords with cervical and thoracic DRGs attached are dissected into Leibovitz L-15 medium (GIBCO). Ganglia are separated from the spinal cord, stripped of their connective tissue sheaths and roots, and are then pooled and washed twice with PBS buffer (pH 7.4). DRGs are plated (4 per dish) in culture media and incubated at 37° C. in 5% carbon dioxide for 4 hours to allow DRGs to attach to the substrate. Medium is then added to bring the total volume to 1 ml. […] Calcium-free medium is prepared in the same manner, replacing MEM with S-MEM (GIBCO).
At the end of the treatment period (see below) DRGs are fixed for 30 minutes with 4% paraformaldehyde. Cultures are then rinsed with 0.1M TBS buffer, and treated sequentially with 3% H2O2, TBS-Triton, and 4% normal goat serum (NGS), each for 30 minutes at room temperature. DRGs are incubated at 4 C overnight in monoclonal antibody to MAP5 (1:500, Sigma). After washing in TBS-Triton, DRGs are incubated for 60 minutes in biotinylated secondary antibody, rinsed with TBS and reacted with avidin-biotin complex solution (ABC; Vector Labs) for one hour. Color is generated by incubation for 10 minutes in diaminobenzidine (DAB) solution, enhanced by addition of 0.025% cobalt chloride and 0.02% nickel ammonium sulfate. Stained tissue is rinsed, air dried and cover-slipped for microscopy with Crystal/Mount (Biomeda).
This method of allowing neuritic extension to proceed before addition of a neurotoxin tests the effect of the toxin on established neurites as opposed to the effect on primary neuritic outgrowth.
After day 5 of culture, the media is changed to that containing the experimental treatment. This date is defined as treatment day 0. Cultures are monitored and imaged daily using video microscopy. […] AK 295 (Z-leu-Abu-(CH2)3-4-morpholinyl, gift of Dr. James Powers, Georgia Institute of Technology), is dissolved in 100% DMSO and is then diluted to its final concentration with culture medium. The final concentration of DMSO is 0.05%. Phenylmethylsulfonyl fluoride (PMSF) is manufactured by and commercially available from Sigma.
After 6 days of treatment (11 days in culture) immunostained DRGs are quantitated for degree of axonal degeneration. Images of the DRGs and neurites are captured onto disk using a computerized video imaging system, and are analyzed using NIH Image version 1.61. DRG areas are calculated by tracing the outside circumference of the remaining culture halo. The length of the longest neurite of each DRG is measured from the center of the DRG to the distal end of the neurite, so that cultures without remaining neurites still have positive values. These quantitative data are subjected to ANOVA, with post-test correction for multiple comparisons.

DRG neurites [2] = experiment: Effect of treatment modalities on DRG area and neuritic length in control cultures (no vincristine); type: cell-based, rat; conditions: for Area / Length: added to 5-day old cultures, after 6 days of treatment, no vincristine; for effects on neurite growth or survival in control cultures (in words): addition to control cultures
Excerpt: This date is defined as treatment day 0. Cultures are monitored and imaged daily using video microscopy. […] The final concentration of DMSO is 0.05%.

axotomized neurites = experiment: Wallerian degeneration of axotomized DRG neurites in culture; type: cell-based, rat; conditions: added at the time of axotomy; EGTA 2 mM or AK295 50 μM; 72 hours after axotomy
Protocol: Five-day old cultures with extended neurites are used. Neurites are cut by excising and removing the DRG with a scalpel blade. Care should be taken to remove substantially all neurons within the DRG. At least 1 ganglion/dish was left unaxotomized to serve as a control for that group of ganglia. For experiments involving therapeutic interventions, the media is changed just prior to axotomy to media containing either EGTA (2 mM) or AK295 (50 μM). Cultures are observed daily for 72 hours after axotomy, at which time they are fixed and immunostained.
Stained cultures are scored blindly for degree of axonal degeneration. […] Any fibers with interruptions along their length are scored as degenerated. The number of surviving fibers in each DRG are counted under 200× magnification, and the DRG is given a survival score of 0-3: 0 =no fibers remaining, 1=1-4 fibers remaining, 2=5-9 fibers remaining, 3=10 or more fibers remaining.

[3] = Day 6 of treatment, AK295 50 μM, PMSF 50 μM
[4] = Day 3 of treatment, AK295 50 μM
[5] = Day 4 of treatment, AK295 50 μM

SMILES | Area (DRG neuritic halo) (DRG neurites [1]; [3]) | Length (longest neurite) (DRG neurites [1]; [3]) [mm] | protection against vincristine-induced axonal degeneration (in words) (DRG neurites [1]; PMSF 50 μM, day 6) | Area (DRG neurites [2]) [mm^2] | Length (DRG neurites [2]) [mm] | effects on neurite growth or survival in control cultures (in words) (DRG neurites [2]) | protection against Wallerian degeneration (in words) (axotomized neurites) | Area (DRG neuritic halo) (DRG neurites [1]; [4]) | Length (longest neurite) (DRG neurites [1]; [4]) [mm] | Area (DRG neuritic halo) (DRG neurites [1]; [5]) | Length (longest neurite) (DRG neurites [1]; [5]) [mm] | protection against vincristine-induced axonal degeneration (in words) (DRG neurites [1]; EGTA 2 mM in standard media) | protection against vincristine-induced axonal degeneration (in words) (DRG neurites [1]; EGTA ≦1 mM in standard media) | prevention of vincristine-induced axonal degeneration (in words) (DRG neurites [1]; AK295 1 μM (not shown)) | prevention of vincristine-induced axonal degeneration (in words) (DRG neurites [1]; AK295 10 μM (not shown)) | prevention of vincristine-induced axonal degeneration (in words) (DRG neurites [1]; AK295 50 μM)
O=S(=O)(F)Cc1ccccc1 [PMSF, Phenylmethylsulfonyl fluoride] | 0.73 ± 0.16 (43) mm^2 | 0.55 ± 0.06 | no protective effects | – | – | – | – | – | – | – | – | – | – | – | – | –
O=C(O)CN(CCOCCOCCN(CC(=O)O)CC(=O)O)CC(=O)O [EGTA] | 13.36 ± 1.04 (14) mm^2 | 2.43 ± 0.07 | – | 44.40 ± 2.74 | 4.74 ± 0.18 | no effects on neurite growth or survival | significant protection | 15.05 ± 1.78 (12) mm^2 | 2.62 ± 0.17 | 12.97 ± 0.94 mm^2 | 2.44 ± 0.13 | as effective as calcium-free media | ineffective | – | – | –
CCC(NC(=O)[C@H](CC(C)C)NC(=O)OCc1ccccc1)C(=O)C(=O)NCCCN1CCOCC1 (stereo partly shown) [AK295, Z-leu-Abu-(CH2)3-4-morpholinyl] | 10.34 ± 2.14 (12) mm^2 | 2.05 ± 0.25 | – | 49.18 ± 2.69 | 4.80 ± 0.16 | no effects on neurite growth or survival | as protective as EGTA | 16.61 ± 1.18 (18) mm^2 | 2.65 ± 0.11 | 14.77 ± 2.19 (14) mm^2 | 2.45 ± 0.25 | – | – | ineffective | effective in preventing axonal degeneration | effective in preventing axonal degeneration
